# Measurements as given in US9737493B2, “Compositions and methods for modulating DNMT1 inhibitor activity” (University of Louisville Research Foundation, Inc., priority 2012, dated 2017).
# Assays:
# Format in all cases: cell-based, human
# [1] = test system: Hs27 cells; experiment: Trypan blue exclusion assay; settings: Hs27, 72 h
# Protocol: (§1) FIG. 3: XB05 Induces Apoptotic and Nonapoptotic Cell Death in Malignant Cell Lines. (A) Trypan blue exclusion assay for three human cell lines following treatment with XB05 for 72 h at the concentrations indicated. Data points represent the mean+/−SEM for three independent experiments. (B) Representative phase contrast microscopy images of cells treated with vehicle (72 h), XB05 (72 h with 1 μM for U937 and Hs27, or 2 μM for A549), or 6 μg/mL camptothecin (U937 for 6 h, A549 and Hs27 for 48 h). Cells undergoing apoptotic (black arrows) or non-apoptotic (white arrows) cell death are indicated. (C) Whole cell extracts from cells treated with vehicle, camptothecin, or XB05, as described in part B were western blotted for biochemical markers of apoptosis and GAPDH (loading control). Apoptosis is indicated by cleavage of full-length PARP-1 (116 kDa) to an 89 kDa fragment, and by appearance of bands (17 kDa, 19 kDa) recognized by an antibody specific to cleaved (activated) forms of caspase-3. (D) Flow cytometric analysis of annexin V-FITC/propidium Iodide (PI) staining for malignant cells treated with vehicle, camptothecin or XB05 as described in part B, in the presence or absence of the pan-caspase inhibitor Z-VAD-fmk (100 μM).
# (§2) After 72 h, cells were trypsinized (in the case of adherent cells), stained with trypan blue solution (0.4%) (BioRad, Hercules Calif.) and cell number and percent viability determined on a TC10 automated cell counter (BioRad) using triplicate measurements for each sample. Phase contrast microscopy images were obtained on an EVOSfI digital inverted microscope (Advanced Microscopy Group, Bothell, Wash.).
# [2] = test system: A549 cells; experiment: Trypan blue exclusion assay; settings: A549, 2 μM, 72 h
# Protocol: as §1, §2
# [3] = test system: U937 cells; experiment: Trypan blue exclusion assay; settings: U937, 1 μM, 72 h
# Protocol: as §1, §2
# [4] = test system: A549 cells; experiment: DNA content (PI) cell cycle analysis
# Protocol: (§3) FIG. 6: DNA Content Analysis for Malignant Cells treated with XB05. (A) U937 and A549 cells were treated with XB05 at the concentrations indicated for 24, 48 and 72 h. At each time point, the cells were harvested and subjected to propidium iodide (PI) staining for DNA content analysis as described in Methods. (B) Tables showing percentage of cycling cells (non-SubG1) in various phases of the cell cycle after treatment with vehicle or XB05 as indicated in FIG. 6A.
# (§4) Flow Cytometric Assays. Analyses were performed using a FACScalibur flow cytometer (BD Biosciences, Mountain View, Calif.) and FlowJo software (Tree Star, Inc., Ashland, Oreg.). Cells were treated as indicated in the figures and in the Brief Description of the Drawings. Cells were harvested by using TrypLE Cell Dissociation Reagent (Life Technologies). For cell death analyses, cells (adherent and detached cells) were stained with annexin-V-FITC and propidium iodide (PI) using the Apoptosis Detection Kit (BD Biosciences, San Jose, Calif.), according to the manufacturer's instructions. For cell-cycle distribution, cells were fixed, and stained with PI using the Cycle Test Plus kit (Becton Dickinson, Franklin Lakes, N.J.). […] Cells were then washed twice with PBS, re-suspended at a density of 1×10^6 cells/mL in PBS and analyzed by flow cytometry.
# [5] = test system: U937 cells; experiment: DNA content (PI) cell cycle analysis; settings: U937, 24 h
# Protocol: as §3, §4
smiles,measurement,setting,value
CCCCCC(O)C#CC(F)(F)Br (centres unmarked) [XB05],cell death (trypan blue exclusion),[1],lowest levels of cell death
same,cell death (trypan blue exclusion),[2],modest cell death
same,cell death (trypan blue exclusion),[3],robust cell death
same,proportion of cells in G2/M phase,[4],very modest increase in the G2/M fraction
same,proportion of cells in G2/M phase,[5],pronounced increase in the proportion of cells in G2/M phase
